# Entries after “also recorded” stand apart in the source; their conditions may differ.
# Key:
# Format in all cases: cell-based, human
# [1] = tested on: MDA-MB-468, SKBr3, LNCaP, MOLM-13, Kasumi-1, OCI-Ly7 and HuH7 cells; test: Growth inhibition in a panel of cancer cells; settings: growth over 72 h
# Experimental: Tested were MDA-MB-468 triple-negative breast cancer cells, SKBr3 HER2+breast cancer cells, LNCaP mAR+prostate cancer cells, MOLM-13 and Kasumi-1 acute myeloid leukemia cells, OCI-Ly7 diffuse large B-cell lymphoma cells and HuH7 hepatocellular carcinoma cells. […] In cancer cells, half growth inhibitory concentrations ([…]) recorded for YK5 were in high agreement with its potency to degrade Hsp90 onco-clients.
# Growth Inhibition Assay. Antiproliferative effects of inhibitors were evaluated using the dye Alamar blue. This reagent offers a rapid objective measure of cell viability in cell culture, and it uses the indicator dye resazurin to measure the metabolic capacity of cells, an indicator of cell viability. Briefly, cells were plated on Costar 96-well plates. For attached cells (such as SKBr3, MDA-MB-468, LNCaP, MRCS), 8,000 cells/well were used. For suspension cells (such as MOLM-13, Kasumi-1, OCI-Ly7, PBL), 20,000 cells/well were plated. Cells were allowed to incubate for 24 h at 37° C. before drug treatment. Drugs were added in triplicates at the indicated concentrations, and the plate was incubated for 72 h. Alamar Blue (440 μM) was added, and the plate read 6 h later using the Analyst GT (Fluorescence intensity mode, excitation 530 nm, emission 580 nm, with 560=dichroic mirror). Results were analyzed using the Softmax Pro software. The percentage cell growth inhibition was calculated by comparing fluorescence readings obtained from treated versus control cells, accounting for initial cell population (time zero).
# [2] = tested on: HER2, Raf-1, Akt, Hsp70 in SKBr3 cells; test: Western blotting of Hsp90 onco-client proteins and Hsp70 in SKBr3 cells; settings: SKBr3 cells, 24 h
# Experimental: FIG. 3. Testing strategy for the discovery of YK5. a, b) SKBr3 cells were treated for 24 h with the indicated concentrations of inhibitors and cells were lysed for western blot (WB) analysis. β-actin was used as loading control. The data are consistent with those obtained from multiple repeat experiments (n≧3). c) The ability of the indicated inhibitors to compete with GM-Cy3B for Hsp90 binding in SKBr3 cell extracts was examined by fluorescence polarization. Values recorded in wells with added inhibitor were normalized to values read in control wells and plotted against the concentration of tested inhibitor. Drugs were assayed in triplicate. All compounds were used as DMSO stocks. Points, mean; bars, s.d. d) Growth inhibition: SKBr3 cells were incubated in triplicate with increasing concentrations of compound and growth over 72 h was assessed. Y-axis values below 0% represent cell death of the starting population. HER2 degradation was analyzed as in panel a), and gels were quantified by densitometry. Recorded values were normalized to control (vehicle only treated cells) and data graphed against YK5 concentration. Error bars represent the s.d. of the mean (n=3).
# FIG. 8. […] Points, mean; bars, s.d. Yaxis values below 0% represent cell death of the starting population. c) Streptavidin beads (50 μl) were incubated with the indicated concentrations of YK55, YK56 or D-biotin to immobilize the corresponding compounds on beads. Beads (50 μl) were probed with SKBr3 cell extracts (500 μg), and the precipitated Hsp70 analyzed by western blot and quantified by […]. Results from three independent experiments were graphed to determine the relative binding affinity of YKs. Points, mean; bars, s.d. d) Structure of representative YKs. YK55 and YK56 are the biotinylated derivatives of YK54 and YK57, respectively.
# FIG. 9. […] Cells were treated for 24 h with the indicated concentrations of YK149 and YK5. Cells were lysed and proteins analyzed by western blotting. b) Examples of the compounds of the present subject matter inhibit the activity of the oncogenic STAT3 in the triple-negative breast cancer cells MDA-MB-468. Cells were treated for the indicated times with compounds or vehicle and proteins analyzed by western blot. (c) Examples of the compounds of the present subject matter dose-dependently induce apoptosis in the acute myeloid leukemia cells MOLM13. Cells were treated for 24 h with the indicated concentration of compounds and the increase in caspase3,7 activity was measured and compared to only vehicle (DMSO) treated cells. Caspase-3,7 activity was a measure of compound potency in cleaving the caspase substrate Z-DEVD-R110 and releasing rhodamine. The percentage increase in apoptotic cells was calculated by comparing the fluorescence readings obtained from compounds with those obtained from vehicle (DMSO)-treated cells.
# Western Blotting. Cells were grown to 60-70% confluence and treated with inhibitor or DMSO vehicle for the indicated times. Protein lysates were prepared in 50 mM Tris pH 7.4, 150 mM NaCl and 1% NP-40 lysis buffer. Protein concentrations were measured using the BCA kit (Pierce) according to the manufacturer's instructions. […]
# Kasumi-1 cells = test: Apoptosis, acridine orange/ethidium bromide, Kasumi-1; settings: 10 μM, 24 h
# Experimental: FIG. 13. YK5 has a higher apoptotic effect than Hsp90 inhibitors in select tumors. (a-d) Cells were treated with the indicated concentrations of inhibitors for the times presented. (a,b) Apoptotic cells were quantified by dual acridine orange/ethidium bromide staining as described in Methods. (c,d) Molecular markers of apoptosis (PARP cleavage) were analyzed in cells treated for 24 h with indicated concentrations of inhibitors (c) or for the indicated times with the indicated concentration of inhibitors (d) by western blotting. (e) MDAMB-468 cells were treated with vehicle, TNFα (20 ng/ml), YK5 (1 μM), pretreated with YK5 for 2 h before TNFα or co-treated, and cells were lysed for western blot analysis (left), or cell death was quantified by analyzing the hypodiploid population upon propidium iodine staining (right). […]
# To determine whether cell death by YK5 was attributable to apoptosis, cells were treated with YK5 and effects on morphology, as well as on several effectors and mediators of apoptosis were analyzed (FIG. 13). To quantify the number of cells undergoing apoptosis, cells were stained with acridine orange/ethidium bromide (AO/EB) and analyzed under a fluorescence microscope for the percentage of viable, apoptotic (early and late) and necrotic cells. […]
# Apoptosis-Acridine Orange/Ethidium Bromide. […] Percentage of apoptotic cells was determined from 200-300 cells counted in each group.
smiles,measurement,setting,value
"C=CC(=O)Nc1cc(N)nc(Sc2c(OC)nc(N3CCN(C)CC3)nc2OC)n1 [YK5, N-(6-amino-2-(4,6-dimethoxy-2-(4-methylpiperazin-1-yl)pyrimidin-5-ylthio)pyrimidin-4-yl)acrylamide]",growth of all tested cancer cells,[1],inhibited the growth of all tested cancer cells
same,feed-back induction of Hsp70 (heat shock response),[2],undetected
same,"degradation of Hsp90 onco-client proteins (HER2, Raf-1, Akt)",[2]; western blot,"dose-dependently reduce the steady-state levels of HER2 and Raf-1; also recorded: induced the degradation of HER2, Raf-1 and Akt kinases"
same,cells undergoing apoptosis,Kasumi-1 cells,70%

# Reference: US9567318B2, “Substituted pyrimidine compounds and uses thereof” (Memorial Sloan-Kettering Cancer Center, priority 2009, dated 2017)
